Test results from patent US20260258048A1, “LACTAM-CONTAINING IMIDAZOPYRIDAZINE IL-17 INHIBITOR COMPOUNDS” (Janssen Pharmaceutica NV, priority 2023, published 2026).

Assays:
[1] = system: IL-17A-induced G-CSF production in human normal keratinocyte (NHK); assay: NHK assay: IL-17A-induced G-CSF production in normal human keratinocytes; format: cell-based; settings: IL-17A 5 ng/mL, 24 h, class of the average IC50 where tested more than once
In short: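 Adult keratinocytes at 3000-4000 cells/well; recombinant human IL-17A pre-incubated 1 h at rt with titrated compound, then added to cells (final 5 ng/mL IL-17A, 0.2% DMSO, 5% FBS) for 24 h at 37 °C. Supernatant G-CSF quantified by HTRF against a standard curve to give IC50; viability checked by CellTiter-Glo versus DMSO.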

[2] = biological target: IL-17A(FLAG-tagged): IL-17RA(His-tagged) (Homo sapiens, UniProt Q16552, K93Q); assay: IL-17A(FLAG-tagged): IL-17RA(His-tagged) binding disruption Eu-HTRF assay; settings: class of the average IC50 where tested more than once
In short: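 Compound (22-point, 2-fold series) was pre-incubated 1 h at rt with FLAG-IL-17A, added as a 2× solution (1 μM). A 2× mix of C-terminal 10×His IL-17RA, Eu-anti-FLAG donor and D2-anti-His acceptor in PBS/0.01% Triton X-100/200 mM KF was then added for 2 h at rt. The 665/615 nm ratio was fitted to one-site competition for IC50.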

Sequence of UniProt Q16552 (Q16552 with tags, fused parts or gaps K93Q): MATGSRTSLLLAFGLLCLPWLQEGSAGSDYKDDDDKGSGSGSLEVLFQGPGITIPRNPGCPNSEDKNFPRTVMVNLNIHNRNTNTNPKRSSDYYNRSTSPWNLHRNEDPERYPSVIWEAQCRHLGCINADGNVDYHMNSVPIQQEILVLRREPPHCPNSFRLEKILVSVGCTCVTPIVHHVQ

IC50 [2] [µM] | SMILES | IC50 [1] [µM] | IC50 ([1]; Homo sapiens, Keratinocyte) [µM]
< 0.4 | COc1nonc1C(=O)N[C@H](c1cn2ncc(CC3C[C@@H](C(F)(F)F)NC3=O)cc2n1)C1CCC(F)(F)CC1 (single isomer, unassigned) [Example 7, N—[(S)-(4,4-Difluorocyclohexyl)-[7-[[(3R*,5S)-2-oxo-5-(trifluoromethyl)pyrrolidin-3-yl]methyl]imidazo[1,2-b]pyridazin-2-yl]methyl]-4-methoxy-1,2,5-oxadiazole-3-carboxamide] | < 0.4 | 
> 4 | COc1nonc1C(=O)N[C@H](c1cn2ncc(CC3C[C@@H](C(F)(F)F)NC3=O)cc2n1)C1CCC(F)(F)CC1 (single isomer, unassigned) [Example 8, N—((S)-(4,4-Difluorocyclohexyl)(7-(((3S*,5S)-2-oxo-5-(trifluoromethyl)pyrrolidin-3-yl)methyl)imidazo[1,2-b]pyridazin-2-yl)methyl)-4-methoxy-1,2,5-oxadiazole-3-carboxamide] | > 4 | 
< 0.4 | Cc1nonc1C(=O)N[C@H](c1cn2ncc(CC3C[C@@H](C(F)(F)F)NC3=O)cc2n1)C1CCC(F)(F)CC1 (single isomer, unassigned) [Example 9, N—[(S)-(4,4-Difluorocyclohexyl)-[7-[[(3S*,5S)-2-oxo-5-(trifluoromethyl)pyrrolidin-3-yl]methyl]imidazo[1,2-b]pyridazin-2-yl]methyl]-4-methyl-1,2,5-oxadiazole-3-carboxamide] | < 0.4 | 
> 4 | Cc1nonc1C(=O)N[C@H](c1cn2ncc(CC3C[C@@H](C(F)(F)F)NC3=O)cc2n1)C1CCC(F)(F)CC1 (single isomer, unassigned) [Example 10, N—[(S)-(4,4-Difluorocyclohexyl)-[7-[[(3R*,5S)-2-oxo-5-(trifluoromethyl)pyrrolidin-3-yl]methyl]imidazo[1,2-b]pyridazin-2-yl]methyl]-4-methyl-1,2,5-oxadiazole-3-carboxamide] | > 4 | 
< 0.4 | O=C(N[C@H](c1cn2ncc(C[C@@]34CCC[C@H](C3)NC4=O)cc2n1)C1CCC(F)(F)CC1)c1nonc1C1CC1 (single isomer, unassigned) [Example 11] |  | < 0.4
< 0.4 | CC1(C)CC(Cc2cnn3cc([C@@H](NC(=O)c4nonc4C4CC4)C4CCC(F)(F)CC4)nc3c2)C(=O)N1 (single isomer, unassigned) [Example 13, 4-Cyclopropyl-N—[(S)-(4,4-difluorocyclohexyl)-[7-[[(3R*)-5,5-dimethyl-2-oxo-pyrrolidin-3-yl]methyl]imidazo[1,2-b]pyridazin-2-yl]methyl]-1,2,5-oxadiazole-3-carboxamide] |  | 0.4 to 4
> 4 | CC1(C)C[C@H](Cc2cnn3cc([C@@H](NC(=O)c4nonc4C4CC4)C4CCC(F)(F)CC4)nc3c2)C(=O)N1 (single isomer, unassigned) [Example 14] |  | > 4
> 4 | CC1(C)CNC(=O)C1Cc1cnn2cc([C@@H](NC(=O)c3nonc3C3CC3)C3CCC(F)(F)CC3)nc2c1 (single isomer, unassigned) [Example 15, 4-Cyclopropyl-N—[(S)-(4,4-difluorocyclohexyl)-[7-[[(3R*)-4,4-dimethyl-2-oxo-pyrrolidin-3-yl]methyl]imidazo[1,2-b]pyridazin-2-yl]methyl]-1,2,5-oxadiazole-3-carboxamide] |  | > 4
0.4 to 4 | CC1(C)CNC(=O)C1Cc1cnn2cc([C@@H](NC(=O)c3nonc3C3CC3)C3CCC(F)(F)CC3)nc2c1 (single isomer, unassigned) [Example 16, 4-Cyclopropyl-N—[(S)-(4,4-difluorocyclohexyl)-[7-[[(3S*)-4,4-dimethyl-2-oxo-pyrrolidin-3-yl]methyl]imidazo[1,2-b]pyridazin-2-yl]methyl]-1,2,5-oxadiazole-3-carboxamide] | > 4 | 
0.4 to 4 | O=C(N[C@H](c1cn2ncc(C[C@@]34CC[C@H](C3)NC4=O)cc2n1)C1CCC(F)(F)CC1)c1nonc1C1CC1 (single isomer, unassigned) [Example 17] |  | > 4
0.4 to 4 | O=C(N[C@H](c1cn2ncc(C[C@]34CC[C@@H](C3)NC4=O)cc2n1)C1CCC(F)(F)CC1)c1nonc1C1CC1 (single isomer, unassigned) [Example 18] |  | 0.4 to 4
< 0.4 | CC[C@@H](c1cnn2cc([C@@H](NC(=O)c3nonc3C3CC3)C3CCC(F)(F)CC3)nc2c1)[C@@H]1C[C@@H](C(F)(F)F)NC1=O (single isomer, unassigned) [Example 19] |  | < 0.4
0.4 to 4 | O=C(N[C@H](c1cn2ncc(CC3CCNC3=O)cc2n1)C1CCC(F)(F)CC1)c1nonc1C1CC1 (single isomer, unassigned) [Example 21, 4-Cyclopropyl-N—[(S)-(4,4-difluorocyclohexyl)-[7-[[(3R*)-2-oxopyrrolidin-3-yl]methyl]imidazo[1,2-b]pyridazin-2-yl]methyl]-1,2,5-oxadiazole-3-carboxamide] |  | > 4
> 4 | O=C(N[C@H](c1cn2ncc(CC3CCNC3=O)cc2n1)C1CCC(F)(F)CC1)c1nonc1C1CC1 (single isomer, unassigned) [Example 22, 4-Cyclopropyl-N—[(S)-(4,4-difluorocyclohexyl)-[7-[[(3S*)-2-oxopyrrolidin-3-yl]methyl]imidazo[1,2-b]pyridazin-2-yl]methyl]-1,2,5-oxadiazole-3-carboxamide] | > 4 | 
0.4 to 4 | O=C(N[C@H](c1cn2ncc(CC3CCCCNC3=O)cc2n1)C1CCC(F)(F)CC1)c1nonc1C1CC1 (single isomer, unassigned) [Example 25, 4-Cyclopropyl-N—((S)-(4,4-difluorocyclohexyl(7-(((R*)-2-oxoazepan-3-yl)methyl)imidazo[1,2-b]pyridazin-2-yl)methyl)-1,2,5-oxadiazole-3-carboxamide] |  | > 4
0.4 to 4 | O=C(N[C@H](c1cn2ncc(CC3CCCCNC3=O)cc2n1)C1CCC(F)(F)CC1)c1nonc1C1CC1 (single isomer, unassigned) [Example 26, 4-Cyclopropyl-N—((S)-(4,4-difluorocyclohexyl)(7-(((S*)-2-oxoazepan-3-yl)methyl)imidazo[1,2-b]pyridazin-2-yl)methyl)-1,2,5-oxadiazole-3-carboxamide] | > 4 | 
0.4 to 4 | CC1(Cc2cnn3cc([C@@H](NC(=O)c4nonc4C4CC4)C4CCC(F)(F)CC4)nc3c2)CCCNC1=O (single isomer, unassigned) [Example 27, 4-Cyclopropyl-N—((S)-(4,4-difluorocyclohexyl)(7-(((R*)-3-methyl-2-oxopiperidin-3-yl)methyl)imidazo[1,2-b]pyridazin-2-yl)methyl)-1,2,5-oxadiazole-3-carboxamide] | > 4 | 
< 0.4 | CC1(Cc2cnn3cc([C@@H](NC(=O)c4nonc4C4CC4)C4CCC(F)(F)CC4)nc3c2)CCCNC1=O (single isomer, unassigned) [Example 28, 4-Cyclopropyl-N—((S)-(4,4-difluorocyclohexyl)(7-(((S*)-3-methyl-2-oxopiperidin-3-yl)methyl)imidazo[1,2-b]pyridazin-2-yl)methyl)-1,2,5-oxadiazole-3-carboxamide] | 0.4 to 4 | 
> 4 | O=C(N[C@H](c1cn2ncc([C@H]3C[C@]34C[C@@H](C(F)(F)F)NC4=O)cc2n1)C1CCC(F)(F)CC1)c1nonc1C1CC1 (single isomer, unassigned) [Example 40] |  | > 4
< 0.4 | O=C(N[C@H](c1cn2ncc(CC3C[C@@H](C4CC4)NC3=O)cc2n1)C1CCC(F)(F)CC1)c1nonc1C1CC1 (single isomer, unassigned) [Example 42, 4-Cyclopropyl-N—((S)-(7-(((3S*,5S)-5-cyclopropyl-2-oxopyrrolidin-3-yl)methyl)imidazo[1,2-b]pyridazin-2-yl)(4,4-difluorocyclohexyl)methyl)-1,2,5-oxadiazole-3-carboxamide] | < 0.4 | 
0.4 to 4 | O=C(N[C@H](c1cn2ncc(CC3C[C@@H](C4CC4)NC3=O)cc2n1)C1CCC(F)(F)CC1)c1nonc1C1CC1 (single isomer, unassigned) [Example 43, 4-Cyclopropyl-N—((S)-(7-(((3R*,5S)-5-cyclopropyl-2-oxopyrrolidin-3-yl)methyl)imidazo[1,2-b]pyridazin-2-yl)(4,4-difluorocyclohexyl)methyl)-1,2,5-oxadiazole-3-carboxamide] | > 4 | 
0.4 to 4 | O=C(N[C@H](c1cn2ncc(CC3C(=O)NCC3C(F)(F)F)cc2n1)C1CCC(F)(F)CC1)c1nonc1C1CC1 (single isomer, unassigned) [Example 50] |  | > 4
0.4 to 4 | CC1(Cc2cnn3cc([C@@H](NC(=O)c4nonc4C4CC4)C4CCC(F)(F)CC4)nc3c2)CCNC1=O (single isomer, unassigned) [Example 53, 4-Cyclopropyl-N—((S)-(4,4-difluorocyclohexyl)(7-(((R*)-3-methyl-2-oxopyrrolidin-3-yl)methyl)imidazo[1,2-b]pyridazin-2-yl)methyl)-1,2,5-oxadiazole-3-carboxamide] | 0.4 to 4 | 
